Measured values taken from the supplement of paper PMC13380429.

Experiments:
[1] = test system: A549-ACE2 infected with SARS-CoV-2; assay: cell count relative to DMSO; higher = less toxic; conditions: 24 h
Caco-2 [2] = assay: cell viability relative to DMSO; higher = less toxic; conditions: 72 h
HepG2 [3] = assay: as above; conditions: 72 h
U2OS [4] = assay: as above; conditions: 72 h
Vero E6 [5] = assay: as above; conditions: 72 h
[6] = test system: A549-ACE2 infected with SARS-CoV-2; assay: SARS-CoV-2 infection rate relative to DMSO; higher = more infection; conditions: 24 h
A549-ACE2 [7] = assay: phospholipidosis EC50; higher = less potent phospholipidosis inducer
A549-ACE2 [8] = assay: drug-induced phospholipidosis relative to tamoxifen; higher = more phospholipidosis
[9] = test system: A549-ACE2 infected with SARS-CoV-2; assay: morphology score (similarity to uninfected cells); higher = more like uninfected cells; conditions: 24 h
Caco-2 [10] = assay: relative viability EC50 (midpoint between 100% and the lowest measured viability); higher = less toxic; conditions: 72 h
HepG2 [11] = assay: as above; conditions: 72 h
U2OS [12] = assay: as above; conditions: 72 h
Caco-2 [13] = assay: drug sensitivity score (DSS) for viability; higher = more toxic; extreme values may be limits of the assay; conditions: 72 h
HepG2 [14] = assay: as above; conditions: 72 h
U2OS [15] = assay: as above; conditions: 72 h
Vero E6 [16] = assay: as above; conditions: 72 h
Calu-3 [17] = assay: cell viability relative to DMSO; higher = less toxic; conditions: 72 h
Calu-3 [18] = assay: relative viability EC50 (midpoint between 100% and the lowest measured viability); higher = less toxic; conditions: 72 h
Vero E6 [19] = assay: as above; conditions: 72 h
Calu-3 [20] = assay: drug sensitivity score (DSS) for viability; higher = more toxic; extreme values may be limits of the assay; conditions: 72 h

Cc1cccc(Nc2nc(-c3ccncc3)cs2)c1
Conditions	SARS-CoV-2 infection rate [%]	cell count [%]	cell viability [%]	morphology score	phospholipidosis EC50 [µM]
A549-ACE2 [7], 24 h	–	–	–	–	2.94
A549-ACE2 [7], 48 h	–	–	–	–	2.72
A549-ACE2 [7], 72 h	–	–	–	–	3.3
Caco-2 [2], 1 nM	–	–	102	–	–
Caco-2 [2], 10 nM	–	–	111	–	–
Caco-2 [2], 100 nM	–	–	97.4	–	–
Caco-2 [2], 1000 nM	–	–	98	–	–
Caco-2 [2], 10000 nM	–	–	85.8	–	–
HepG2 [3], 1 nM	–	–	104	–	–
HepG2 [3], 10 nM	–	–	108	–	–
HepG2 [3], 100 nM	–	–	97.2	–	–
HepG2 [3], 1000 nM	–	–	94.1	–	–
HepG2 [3], 10000 nM	–	–	48.5	–	–
U2OS [4], 1 nM	–	–	99.2	–	–
U2OS [4], 10 nM	–	–	98.5	–	–
U2OS [4], 100 nM	–	–	95.8	–	–
U2OS [4], 1000 nM	–	–	98.5	–	–
U2OS [4], 10000 nM	–	–	93.6	–	–
Vero E6 [5], 1 nM	–	–	95.5	–	–
Vero E6 [5], 10 nM	–	–	111	–	–
Vero E6 [5], 100 nM	–	–	99	–	–
Vero E6 [5], 1000 nM	–	–	94.9	–	–
Vero E6 [5], 10000 nM	–	–	70.6	–	–
[1], 0.1 µM	–	108	–	–	–
[1], 0.3 µM	–	107	–	–	–
[1], 1 µM	–	110	–	–	–
[1], 3 µM	–	106	–	–	–
[6], 0.1 µM	92	–	–	–	–
[6], 0.3 µM	91	–	–	–	–
[6], 1 µM	83	–	–	–	–
[6], 3 µM	50	–	–	–	–
[9], 0.1 µM	–	–	–	0.25	–
[9], 0.3 µM	–	–	–	0.02	–
[9], 1 µM	–	–	–	0.28	–
[9], 3 µM	–	–	–	0.31	–

drug-induced phospholipidosis [%], A549-ACE2 [8]
Conditions	0.3 µM	0.833333 µM	3.33333 µM	6.66667 µM	10 µM	30 µM
24 h	2.6	8.64	73.8	102	110	57.3
48 h	5.9	9.76	87.3	116	123	69.6
72 h	6.14	9.12	70	125	120	–

Conditions	drug sensitivity score	relative viability EC50 [µM]
Caco-2 [10]	–	> 10
Caco-2 [13]	0.3	–
HepG2 [11]	–	2.22
HepG2 [14]	3.7	–
U2OS [12]	–	> 10
U2OS [15]	0	–
Vero E6 [16]	2.1	–

C/C=C1/[C@H](O[C@@H]2O[C@H](CO)[C@@H](O)[C@H](O)[C@H]2O)OC=C(C(=O)OC)[C@H]1CC(=O)OCCc1ccc(O)c(O)c1 [oleuropein]
cell viability [%]
Conditions	Caco-2 [2]	Calu-3 [17]	HepG2 [3]	U2OS [4]	Vero E6 [5]
1 nM	101	90.8	101	105	98.8
10 nM	108	98.8	97.1	98.7	103
100 nM	99.9	101	98.1	101	98.7
1000 nM	101	102	108	95.1	105
10000 nM	88.8	93.6	84.4	97.8	95.2

Conditions	drug sensitivity score	relative viability EC50 [µM]
Caco-2 [10]	–	> 10
Caco-2 [13]	0	–
Calu-3 [18]	–	> 10
Calu-3 [20]	0	–
HepG2 [11]	–	> 10
HepG2 [14]	0.1	–
U2OS [12]	–	> 10
U2OS [15]	0	–
Vero E6 [16]	0	–
Vero E6 [19]	–	> 10

CN1CCC(=C2c3ccccc3CC(=O)c3sccc32)CC1 [ketotifen]
cell viability [%]
Conditions	Caco-2 [2]	Calu-3 [17]	HepG2 [3]	U2OS [4]	Vero E6 [5]
1 nM	110	108	98.5	101	99.4
10 nM	101	93	96.9	99.3	93.6
100 nM	94.1	101	112	103	96.4
1000 nM	89.7	95.5	92.9	96	98.4
10000 nM	96.3	105	84.9	103	84.9

Conditions	drug sensitivity score	relative viability EC50 [µM]
Caco-2 [10]	–	> 10
Caco-2 [13]	0.1	–
Calu-3 [18]	–	> 10
Calu-3 [20]	0	–
HepG2 [11]	–	> 10
HepG2 [14]	0.8	–
U2OS [12]	–	> 10
U2OS [15]	0	–
Vero E6 [16]	0.4	–
Vero E6 [19]	–	> 10

C(#Cc1nc2ncccc2nc1OCCN1CCCC1)c1ccccc1 [GK921]
Conditions	SARS-CoV-2 infection rate, [6] [%]	cell count, [1] [%]	cell viability, Caco-2 [2] [%]	cell viability, Calu-3 [17] [%]	cell viability, HepG2 [3] [%]	cell viability, U2OS [4] [%]	cell viability, Vero E6 [5] [%]	morphology score, [9]
1 nM	–	–	100	98.7	92.4	97.1	97.2	–
10 nM	–	–	98.2	90.9	99.3	95.7	97.6	–
0.1 µM	100	101	–	–	–	–	–	0.03
100 nM	–	–	101	93.1	102	99.2	94.9	–
0.3 µM	102	102	–	–	–	–	–	-0.05
1 µM	101	95	–	–	–	–	–	0.02
1000 nM	–	–	99.5	93.3	74.5	72.2	103	–
3 µM	53	86	–	–	–	–	–	0.48
10000 nM	–	–	3.8	2.5	-0.3	-0.2	0	–

drug-induced phospholipidosis [%], A549-ACE2 [8]
Conditions	24 h	48 h	72 h
0.3 µM	2.77	8.46	11.7
0.833333 µM	6.24	5.53	2.54

Conditions	drug sensitivity score	relative viability EC50 [µM]
Caco-2 [10]	–	3.13
Caco-2 [13]	5.4	–
Calu-3 [18]	–	2.61
Calu-3 [20]	6.4	–
HepG2 [11]	–	1.53
HepG2 [14]	9.4	–
U2OS [12]	–	1.46
U2OS [15]	9.7	–
Vero E6 [16]	5.3	–
Vero E6 [19]	–	3.35

CCNC(=O)c1n[nH]c(-c2cc(Cl)c(O)cc2O)c1-c1ccc(OC)cc1
cell viability [%]
Conditions	Caco-2 [2]	Calu-3 [17]	HepG2 [3]	U2OS [4]	Vero E6 [5]
1 nM	95.3	99.8	104	93.7	100
10 nM	101	88.5	94.2	99.1	95.7
100 nM	94.4	96.1	105	99.5	100
1000 nM	83.8	85.8	31.3	78.7	78.5
10000 nM	32.7	39.2	2	4.7	37.8

Conditions	drug sensitivity score	relative viability EC50 [µM]
Caco-2 [10]	–	1.58
Caco-2 [13]	6.2	–
Calu-3 [18]	–	1.61
Calu-3 [20]	5.6	–
HepG2 [11]	–	0.714
HepG2 [14]	13.3	–
U2OS [12]	–	1.64
U2OS [15]	8.6	–
Vero E6 [16]	6.5	–
Vero E6 [19]	–	1.29

CCOC(=O)c1ncn2c1[C@@H]1CCCN1C(=O)c1cc(OC)ccc1-2 [L-655,708]
cell viability [%]
Conditions	Caco-2 [2]	Calu-3 [17]	HepG2 [3]	U2OS [4]	Vero E6 [5]
1 nM	97.8	101	90.7	100	94.6
10 nM	95.8	88	100	98.9	95
100 nM	118	96.3	104	97.5	92.3
1000 nM	95.1	96.7	98.7	99.2	97.9
10000 nM	107	105	106	104	111

Conditions	drug sensitivity score	relative viability EC50 [µM]
Caco-2 [10]	–	> 10
Caco-2 [13]	0	–
Calu-3 [18]	–	> 10
Calu-3 [20]	0	–
HepG2 [11]	–	> 10
HepG2 [14]	0	–
U2OS [12]	–	> 10
U2OS [15]	0	–
Vero E6 [16]	0	–
Vero E6 [19]	–	> 10
